Data as given in US20160067162A1, “PHOTOPROTECTIVE COMPOUNDS, COMPOSITIONS INCLUDING SAME AND USES THEREOF” (UNIVERSITE DE RENNES 1, priority 2013, published 2016).

How the values were obtained:
Format in all cases: physicochemical
[1] = UV spectrum measurement in CHCl3 (λmax, molar extinction coefficient); details: for λmax exp: 10^−4 M in CHCl3; for ε (molar extinction coefficient at the λmax): 10^−4 M in CHCl3, 1 cm cuvette
Procedure: The products are diluted in CHCl3 so as to obtain a solution at 10^−4M. The UV spectra are measured using a Uvikon 931 UV-vis spectrophotometer, Serlabo Technologies, Entraigues sur la Sorgue, France. This UV spectrum makes it possible to determine the molar extinction coefficient (mol^−1 L cm^−1) at the λmax by virtue of the Beer-Lambert law: c=A/l×C;
A=value of the absorbance at the λmax; l=length of the cuvette in cm (l=1);
C=concentration of the solution=1×10^−4 mol/l. The theoretical λmax was determined for certain products by DFT calculation.

[2] = SPF measurement, Protocol I (Rennes): simplified O/W emulsion, UV spectrum 200-400 nm; details: for λc p.I: critical wavelength; for λc p.I / Colipa UVA-PF p.I, at 10% / SPF p.I, at 10%: protocol I; for Colipa UVA-PF p.I, at 10%: product at 10%; for SPF p.I, at 10%: product at 10% in simplified O/W emulsion; for UVA/UVB: ratio of area under the curve 315-400 nm to 280-315 nm
Procedure: The SPF measurement is carried out according to the following protocol described in Le Dévéhat F., Malargé A., Couteau C., Coiffard L., Legouin B. “Evaluation of a new UV-filter screening method”, 4th symposium of the AFERP “Biodiversity, chimie des substances naturelles et medicaments” [“Biodiversity, chemistry of natural substances and medicaments”] and 3rd Franco-Pakistani symposium, Besançon (France), Jul. 16-17-18, 2010. A solution of each product dissolved in dimethyl sulfoxide is incorporated at 10% into a simplified emulsion of oil-in-water (O/W) type consisting of liquid paraffin, water and SDS at 10%, the whole mixture taken up in absolute ethanol. The UV spectrum of each solution is recorded between 200 nm and 400 nm in a 10 mm quartz cell on a Uvikon 931 UV-vis spectrophotometer and measured in comparison with a control 10% emulsion solution.
(§1) The SPF and UVA-PF values are, for the two protocols, calculated from the following equations: […]
(§2) where Eλ is the erythemogenic effect of the radiation at the wavelength λ; Sλ is the spectral solar irradiance at the wavelength λ and Tλ is the spectral transmittance of the product at the wavelength λ, λc is the critical wavelength which corresponds to the wavelength at which 90% of the area under the curve (AUC) is integrated between 290 and 400 nm. The UVA/UVB ratio corresponds more specifically to the ratio of the area under the curve between 315 and 400 nm to the area under the curve between 280 and 315 nm.

[3] = SPF measurement, Protocol II (Nantes): O/W emulsion on PMMA plate, transmission with integrating sphere; details: for λc (p.II): critical wavelength; for SPF (p.II, at 1%): product at 1% in O/W emulsion, PMMA plate, 290-400 nm; for Colipa UVA-PF (p.II, at 1%): product at 1%, 320-400 nm
Procedure: The SPF measurement is carried out according to the protocol described in Lohézic-Le Dévéhat F., Legouin B., Couteau C., Boustie J., Coiffard L. “Lichenic extracts and metabolites as UV filters” Journal of Photochemistry and Photobiology B: Biology 120 (2013) 17-28:
An emulsion having the following formulation is used: […]
The two phases are prepared separately. The hydrophilic phase is then added, with stirring, to the lipophilic phase. The products are finally incorporated at 1% into this O/W emulsion. 30 mg of the whole mixture are distributed over the entire surface area (25 cm^2) of a PMMA plate using a finger store. After spreading, 15 mg remain on the finger store. Three plates are prepared per product and nine measurements are carried out. The transmission measurements between 290 and 400 nm for the SPF and between 320 and 400 nm for the UVA-PF are carried out using a spectrophotometer equipped with an integrating sphere (UV Transmittance analyzer UV1000S, Labsphere, North Sutton, US).
as §1, §2

Row | SMILES | λmax exp [1] [nm] | ε (molar extinction coefficient at the λmax) [1] [L/mol/cm] | λc p.I [2] [nm] | Colipa UVA-PF p.I, at 10% [2] | SPF p.I, at 10% [2] | UVA/UVB [2] | λc (p.II) [3] [nm] | SPF (p.II, at 1%) [3] | Colipa UVA-PF (p.II, at 1%) [3]
1 | O=C1C=C(c2ccc(F)cc2)NCC1 [Compound 2, 6-(4-fluorophenyl)-2,3-dihydropyridin-4(1H)-one] | 326 | 10924 | 361 | 5.85 ± 0.16 | 4.30 ± 0.12 | 3.08 ± 0.00 | 383 | 1.81 ± 0.11 | 1.95 ± 0.12
2 | COc1ccc(C2=CC(=O)CCN2)cc1 [Compound 3, 6-(4-methoxyphenyl)-2,3-dihydropyridin-4(1H)-one] | 330 | 16259 | 362 | 9.16 ± 0.10 | 4.30 ± 0.12 | 2.85 ± 0.01 | 384 | 1.25 ± 0.04 | 1.33 ± 0.04
3 | CN(C)c1ccc(C2=CC(=O)CCN2)cc1 [Compound 4, 6-(4-(dimethylamino)phenyl)-2,3-dihydropyridin-4(1H)-one] | 355 | 26286 | 361 | 42.67 ± 1.16 | 9.24 ± 0.18 | 5.19 ± 0.01 | 387 | 1.72 ± 0.08 | 1.88 ± 0.09
4 | CCCC1=CC(=O)CCN1 [Compound 5, 6-propyl-2,3-dihydropyridin-4(1H)-one] | 303 | 12361 | 328 | 1.66 ± 0.003 | 12.17 ± 0.09 | 0.36 ± 0.00 | 335 | 11.18 ± 1.03 | 2.58 ± 0.07
